Reference: patent US8440724B2, “Inhibiting neurotransmitter reuptake” (Mayo Foundation for Medical Education and Research, priority 2008, dated 2013)

System: hSERT, hNET, hDAT
Assay: Human transporter binding: rank order and range of potency over the three transporters
Conditions: from KD values
Description: The program was modified to calculate the Hill coefficient (nH). Data are presented as geometric mean±S.E.M. of at least three independent experiments. One-component models and two-component models were compared using the root mean square error of each fit and the F test.

| Structure (SMILES) | Potency (rank-order of potency of binding; S = hSERT, N = hNET, D = hDAT) |
| --- | --- |
| CNCC[C@H](Oc1cccc2ccccc12)c1cccs1 [Duloxetine, reference compound] | S > N > D |
| CCN(CC)C(=O)C1(c2ccccc2)CC1CN (stereo not drawn) [Milnacipran, reference compound] | S > N > D |
| CCOc1ccccc1OC(c1ccccc1)C1CNCCO1 (stereo not drawn) [Reboxetine, reference compound] | N > S > D |
